Here are results for seven compounds from patent publication US20150141336A1, “Pancreatic Peptide Compounds and Use” (Novo Nordisk A/S, priority 2012, published 2015).

By half-life is commonly meant the time needed for the level to fall by half in the phase considered.

Numbered stars: 1 amine (or outer) side, 2 acyl side, 3 side chain; on linkers, the order of the positions; unused ones are H or OH. Side chains are listed from the residue outwards. Peptide text beside a SMILES is read from it. * marks the point of attachment. C18 diacid = O=C(O)CCCCCCCCCCCCCCCCC(=O)*; γGlu = O=C(O)[C@H](CCC(=O)[*:2])N[*:1]; AEEA = NCCOCCOCC(=O)O

The first data set can be described thus: Assay (II) PK i.v. minipig, in vivo half-life. More on the design: species or system Göttingen mini-pigs. The note with it: male, Göttingen, minipig, iv. The method in brief:
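Plasma levels after a single 6 nmol/kg intravenous dose in five male Göttingen mini-pigs were measured by TFC/LC/MS/MS against spiked-plasma calibration, sampling to 240 h. Vehicle: 50 mM K2HPO4, 0.05% tween 80, pH 8.0. Individual profiles analysed non-compartmentally for half-life.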
Regarding `CC[C@H](C)[C@H](NC(=O)[C@H](Cc1ccc(O)cc1)NC(=O)[C@H](CCCNC(=N)N)NC(=O)[C@H](CCCNC(=N)N)NC(=O)[C@H](CC(C)C)NC(=O)[C@H](CC(=O)O)NC(=O)[C@H](C)NC(=O)[C@H](C)NC(=O)[C@H](Cc1ccc(O)cc1)NC(=O)[C@H](CCC(N)=O)NC(=O)[C@H](C)NC(=O)[C@H](CCSC)NC(=O)[C@H](CCCCNC(=O)COCCOCCNC(=O)COCCOCCNC(=O)CC[C@H](NC(=O)CCCCCCCCCCCCCCCCC(=O)O)C(=O)O)NC(=O)[C@H](CCC(=O)O)NC(=O)[C@@H]1CCCN1C(=O)[C@@H](NC(=O)[C@H](C)NC(=O)[C@H](CC(N)=O)NC(=O)[C@H](CC(=O)O)NC(=O)CNC(=O)[C@@H]1CCCN1C(=O)[C@H](Cc1ccc(O)cc1)NC(=O)[C@@H](NC(=O)[C@@H]1CCCN1C(=O)[C@H](CCC(=O)O)NC(=O)[C@H](CC(C)C)NC(=O)[C@@H]1CCCN1)C(C)C)[C@@H](C)O)C(=O)N[C@@H](CC(N)=O)C(=O)N[C@@H](CCSC)C(=O)N[C@@H](CC(C)C)C(=O)N[C@H](C(=O)N[C@@H](CCCNC(=N)N)C(=O)N1CCC[C@H]1C(=O)N[C@@H](CCCNC(=N)N)C(=O)N[C@@H](Cc1ccc(O)cc1)C(N)=O)[C@@H](C)O` [Compound R] (H-PLEPVYPGDNATPEK([AEEA-AEEA-γGlu-C18 diacid])MAQYAADLRRYINMLTRPRY-NH2; N-terminus and C-terminus assumed), the “Half-life minipig, Assay (II)” value turned out to be 40 h.

Still in this data set, the particulars now being: male, Göttingen, minipig, iv, Half-life minipig, Assay (II).
As for `CC[C@H](C)[C@H](NC(=O)[C@H](Cc1ccc(O)cc1)NC(=O)[C@H](CCCNC(=N)N)NC(=O)[C@H](CCCNC(=N)N)NC(=O)[C@H](CC(C)C)NC(=O)[C@H](CC(=O)O)NC(=O)[C@H](C)NC(=O)[C@H](C)NC(=O)[C@H](Cc1ccc(O)cc1)NC(=O)[C@H](CCC(N)=O)NC(=O)[C@H](C)NC(=O)[C@H](CCSC)NC(=O)[C@H](CCC(N)=O)NC(=O)[C@H](CCC(=O)O)NC(=O)[C@@H]1CCCN1C(=O)[C@@H](NC(=O)[C@H](C)NC(=O)[C@H](CC(N)=O)NC(=O)[C@H](CC(=O)O)NC(=O)CNC(=O)[C@@H]1CCCN1C(=O)[C@H](Cc1ccc(O)cc1)NC(=O)[C@@H](NC(=O)[C@@H]1CCCN1C(=O)[C@H](CCC(=O)O)NC(=O)[C@@H](N)CC(C)C)C(C)C)[C@@H](C)O)C(=O)N[C@@H](CCCCNC(=O)COCCOCCNC(=O)COCCOCCNC(=O)CC[C@H](NC(=O)CCCCCCCCCCCCCCCCC(=O)O)C(=O)O)C(=O)N[C@@H](CCSC)C(=O)N[C@@H](CC(C)C)C(=O)N[C@H](C(=O)N[C@@H](CCCNC(=N)N)C(=O)N1CCC[C@H]1C(=O)N[C@@H](CCCNC(=N)N)C(=O)N[C@@H](Cc1ccc(O)cc1)C(N)=O)[C@@H](C)O` [Compound AM] (H-LEPVYPGDNATPEQMAQYAADLRRYIK([AEEA-AEEA-γGlu-C18 diacid])MLTRPRY-NH2; N-terminus and C-terminus assumed), the half-life was 70 h.

Turning to `CC[C@H](C)[C@H](NC(=O)[C@H](Cc1ccc(O)cc1)NC(=O)[C@H](CCCNC(=N)N)NC(=O)[C@H](CCCNC(=N)N)NC(=O)[C@H](CC(C)C)NC(=O)[C@H](CC(=O)O)NC(=O)[C@H](C)NC(=O)[C@H](C)NC(=O)[C@H](Cc1ccc(O)cc1)NC(=O)[C@H](CCC(N)=O)NC(=O)[C@H](C)NC(=O)[C@H](CCSC)NC(=O)[C@H](CCC(N)=O)NC(=O)[C@H](CCC(=O)O)NC(=O)[C@@H]1CCCN1C(=O)[C@@H](NC(=O)[C@H](C)NC(=O)[C@H](CC(N)=O)NC(=O)[C@H](CC(=O)O)NC(=O)CNC(=O)[C@@H]1CCCN1C(=O)[C@H](Cc1ccc(O)cc1)NC(=O)[C@@H](NC(=O)[C@@H]1CCCN1C(=O)[C@H](CCC(=O)O)NC(=O)[C@@H](N)CC(C)C)C(C)C)[C@@H](C)O)C(=O)N[C@@H](CC(N)=O)C(=O)N[C@@H](CCSC)C(=O)N[C@@H](CCCCNC(=O)COCCOCCNC(=O)COCCOCCNC(=O)CC[C@H](NC(=O)CCCCCCCCCCCCCCCCC(=O)O)C(=O)O)C(=O)N[C@H](C(=O)N[C@@H](CCCNC(=N)N)C(=O)N1CCC[C@H]1C(=O)N[C@@H](CCCNC(=N)N)C(=O)N[C@@H](Cc1ccc(O)cc1)C(N)=O)[C@@H](C)O` [Compound AK] (H-LEPVYPGDNATPEQMAQYAADLRRYINMK([AEEA-AEEA-γGlu-C18 diacid])TRPRY-NH2; N-terminus and C-terminus assumed), the half-life was 80 h.

With `CC[C@H](C)[C@H](NC(=O)[C@H](Cc1ccc(O)cc1)NC(=O)[C@H](CCCNC(=N)N)NC(=O)[C@H](CCCNC(=N)N)NC(=O)[C@H](CC(C)C)NC(=O)[C@H](CC(=O)O)NC(=O)[C@H](C)NC(=O)[C@H](C)NC(=O)[C@H](Cc1ccc(O)cc1)NC(=O)[C@H](CCC(N)=O)NC(=O)[C@H](C)NC(=O)[C@H](CCSC)NC(=O)[C@H](CCCCNC(=O)COCCOCCNC(=O)COCCOCCNC(=O)CC[C@H](NC(=O)CCCCCCCCCCCCCCCCC(=O)O)C(=O)O)NC(=O)[C@H](CCC(=O)O)NC(=O)[C@@H]1CCCN1C(=O)[C@@H](NC(=O)[C@H](C)NC(=O)[C@H](CC(N)=O)NC(=O)[C@H](CC(=O)O)NC(=O)CNC(=O)[C@@H]1CCCN1C(=O)[C@H](Cc1ccc(O)cc1)NC(=O)[C@@H](NC(=O)[C@@H]1CCCN1C(=O)[C@H](CCC(=O)O)NC(=O)[C@H](CC(C)C)NC(=O)[C@@H]1CCCN1)C(C)C)[C@@H](C)O)C(=O)N[C@@H](CC(N)=O)C(=O)N[C@@H](CCSC)C(=O)N[C@@H](CC(C)C)C(=O)N[C@H](C(=O)N[C@@H](CCCNC(=N)N)C(=O)N1CCC[C@H]1C(=O)N[C@@H](CCCNC(=N)N)C(=O)N[C@@H](Cc1ccc(O)cc1)C(N)=O)[C@@H](C)O` [Compound R] (H-PLEPVYPGDNATPEK([AEEA-AEEA-γGlu-C18 diacid])MAQYAADLRRYINMLTRPRY-NH2; N-terminus and C-terminus assumed), the half-life is 44 h.

Take `CC[C@H](C)[C@H](NC(=O)[C@H](Cc1ccc(O)cc1)NC(=O)[C@H](CCCNC(=N)N)NC(=O)[C@H](CCCNC(=N)N)NC(=O)[C@H](CC(C)C)NC(=O)[C@H](CC(=O)O)NC(=O)[C@H](C)NC(=O)[C@H](C)NC(=O)[C@H](Cc1ccc(O)cc1)NC(=O)[C@H](CCC(N)=O)NC(=O)[C@H](C)NC(=O)[C@H](CCSC)NC(=O)[C@H](CCC(N)=O)NC(=O)[C@H](CCC(=O)O)NC(=O)[C@@H]1CCCN1C(=O)[C@@H](NC(=O)[C@H](C)NC(=O)[C@H](CC(N)=O)NC(=O)[C@H](CC(=O)O)NC(=O)CNC(=O)[C@@H]1CCCN1C(=O)[C@H](Cc1ccc(O)cc1)NC(=O)[C@@H](NC(=O)[C@@H]1CCCN1C(=O)[C@H](CCC(=O)O)NC(=O)[C@H](CC(C)C)NC(=O)[C@@H]1CCCN1)C(C)C)[C@@H](C)O)C(=O)N[C@@H](CC(N)=O)C(=O)N[C@@H](CCCCNC(=O)COCCOCCNC(=O)COCCOCCNC(=O)CC[C@H](NC(=O)CCCCCCCCCCCCCCCCC(=O)O)C(=O)O)C(=O)N[C@@H](CC(C)C)C(=O)N[C@H](C(=O)N[C@@H](CCCNC(=N)N)C(=O)N1CCC[C@H]1C(=O)N[C@@H](CCCNC(=N)N)C(=O)N[C@@H](Cc1ccc(O)cc1)C(N)=O)[C@@H](C)O` [Compound D] (H-PLEPVYPGDNATPEQMAQYAADLRRYINK([AEEA-AEEA-γGlu-C18 diacid])LTRPRY-NH2; N-terminus and C-terminus assumed): the half-life is 77 h.

Turning to `CC[C@H](C)[C@H](NC(=O)[C@H](Cc1ccc(O)cc1)NC(=O)[C@H](CCCNC(=N)N)NC(=O)[C@H](CCCNC(=N)N)NC(=O)[C@H](CC(C)C)NC(=O)[C@H](CC(=O)O)NC(=O)[C@H](C)NC(=O)[C@H](C)NC(=O)[C@H](Cc1ccc(O)cc1)NC(=O)[C@H](CCC(N)=O)NC(=O)[C@H](C)NC(=O)[C@H](CCSC)NC(=O)[C@H](CCC(N)=O)NC(=O)[C@H](CCC(=O)O)NC(=O)[C@@H]1CCCN1C(=O)[C@@H](NC(=O)[C@H](C)NC(=O)[C@H](CC(N)=O)NC(=O)[C@H](CC(=O)O)NC(=O)CNC(=O)[C@@H]1CCCN1C(=O)[C@H](Cc1ccc(O)cc1)NC(=O)[C@@H](NC(=O)[C@H](CCCCNC(=O)COCCOCCNC(=O)COCCOCCNC(=O)CC[C@H](NC(=O)CCCCCCCCCCCCCCCCC(=O)O)C(=O)O)NC(=O)[C@H](CCC(=O)O)NC(=O)[C@H](CC(C)C)NC(=O)[C@@H]1CCCN1)C(C)C)[C@@H](C)O)C(=O)N[C@@H](CC(N)=O)C(=O)N[C@@H](CCSC)C(=O)N[C@@H](CC(C)C)C(=O)N[C@H](C(=O)N[C@@H](CCCNC(=N)N)C(=O)N1CCC[C@H]1C(=O)N[C@@H](CCCNC(=N)N)C(=O)N[C@@H](Cc1ccc(O)cc1)C(N)=O)[C@@H](C)O` [Compound AC], the half-life is 11 h.

Regarding `CC[C@H](C)[C@H](NC(=O)[C@H](Cc1ccc(O)cc1)NC(=O)[C@H](CCCNC(=N)N)NC(=O)[C@H](CCCNC(=N)N)NC(=O)[C@H](CC(C)C)NC(=O)[C@H](CC(=O)O)NC(=O)[C@H](C)NC(=O)[C@H](C)NC(=O)[C@H](CCCCNC(=O)COCCOCCNC(=O)COCCOCCNC(=O)CC[C@H](NC(=O)CCCCCCCCCCCCCCCCC(=O)O)C(=O)O)NC(=O)[C@H](CCC(N)=O)NC(=O)[C@H](C)NC(=O)[C@H](CCSC)NC(=O)[C@H](CCC(N)=O)NC(=O)[C@H](CCC(=O)O)NC(=O)[C@@H]1CCCN1C(=O)[C@@H](NC(=O)[C@H](C)NC(=O)[C@H](CC(N)=O)NC(=O)[C@H](CC(=O)O)NC(=O)CNC(=O)[C@@H]1CCCN1C(=O)[C@H](Cc1ccc(O)cc1)NC(=O)[C@@H](NC(=O)[C@@H]1CCCN1C(=O)[C@H](CCC(=O)O)NC(=O)[C@H](CC(C)C)NC(=O)[C@@H]1CCCN1)C(C)C)[C@@H](C)O)C(=O)N[C@@H](CC(N)=O)C(=O)N[C@@H](CCSC)C(=O)N[C@@H](CC(C)C)C(=O)N[C@H](C(=O)N[C@@H](CCCNC(=N)N)C(=O)N1CCC[C@H]1C(=O)N[C@@H](CCCNC(=N)N)C(=O)N[C@@H](Cc1ccc(O)cc1)C(N)=O)[C@@H](C)O` [Compound N] (H-PLEPVYPGDNATPEQMAQK([AEEA-AEEA-γGlu-C18 diacid])AADLRRYINMLTRPRY-NH2; N-terminus and C-terminus assumed), the half-life is 44 h.

For the compound `CC[C@H](C)[C@H](NC(=O)[C@H](Cc1ccc(O)cc1)NC(=O)[C@H](CCCNC(=N)N)NC(=O)[C@H](CCCNC(=N)N)NC(=O)[C@H](CC(C)C)NC(=O)[C@H](CC(=O)O)NC(=O)[C@H](C)NC(=O)[C@H](CCCCNC(=O)COCCOCCNC(=O)COCCOCCNC(=O)CC[C@H](NC(=O)CCCCCCCCCCCCCCCCC(=O)O)C(=O)O)NC(=O)[C@H](Cc1ccc(O)cc1)NC(=O)[C@H](CCC(N)=O)NC(=O)[C@H](C)NC(=O)[C@H](CCSC)NC(=O)[C@H](CCC(N)=O)NC(=O)[C@H](CCC(=O)O)NC(=O)[C@@H]1CCCN1C(=O)[C@@H](NC(=O)[C@H](C)NC(=O)[C@H](CC(N)=O)NC(=O)[C@H](CC(=O)O)NC(=O)CNC(=O)[C@@H]1CCCN1C(=O)[C@H](Cc1ccc(O)cc1)NC(=O)[C@@H](NC(=O)[C@@H]1CCCN1C(=O)[C@H](CCC(=O)O)NC(=O)[C@H](CC(C)C)NC(=O)[C@@H]1CCCN1)C(C)C)[C@@H](C)O)C(=O)N[C@@H](CC(N)=O)C(=O)N[C@@H](CCSC)C(=O)N[C@@H](CC(C)C)C(=O)N[C@H](C(=O)N[C@@H](CCCNC(=N)N)C(=O)N1CCC[C@H]1C(=O)N[C@@H](CCCNC(=N)N)C(=O)N[C@@H](Cc1ccc(O)cc1)C(N)=O)[C@@H](C)O` [Compound M] (H-PLEPVYPGDNATPEQMAQYK([AEEA-AEEA-γGlu-C18 diacid])ADLRRYINMLTRPRY-NH2; N-terminus and C-terminus assumed), the half-life was 77 h.
